This is an account of results in PubChem BioAssay AID179 (DTP/NCI, 2004).

The subject of the test is CEM cells HIV-1 protection, formazan growth assay. Description: NCI AIDS Antiviral Assay. The conditions noted are these: for IC50: measured here: growth of uninfected CEM cells. An outline of the steps: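 Category rules: moderately active means at least 50% protection on retest, and confirmed active means 100% protection reproducibly. The underlying data came from a formazan growth assay in HIV-1-infected CEM cells.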

As usually defined, the EC50 is the concentration giving half of the maximal effect. What is called IC50 is the point on the concentration scale where inhibition reaches its midpoint.

Several values for one entry are separate records, joined by “and”; a condition that tells them apart may be missing. Identical values can stand only once. Activity calls are given as the source filed them.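 Rule for the calls: active = compounds giving half or more protection of infected cells from virus-caused growth loss, again on retest; inactive = the rest.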 Where a SMILES comes first, the peptide text is derived from it.

As to `COC(=N)CCCl`, the EC50 was greater than 200 µM and the IC50 was greater than 200 µM.

For the molecule `CSC1=C(C(=O)Nc2ccc(C)cc2)C(N)=NC1=O`, the EC50 was greater than 100 µM and the IC50 is greater than 100 µM.

For `COc1cc(/C=C/c2cc(O)cc(C3OC(CO)C(O)C(O)C3O)c2)ccc1O` (stereo unspecified), the result was inactive.

As to `COC(=O)C(C(=O)C(=O)Nc1nc(=S)[nH][nH]1)c1csc(N)n1` (stereo unspecified), the EC50 was greater than 724 µM and the IC50 was greater than 724 µM.

Consider `CCOC(=O)/C(=C\c1c(C)[nH]c2ccccc12)P(=O)(OCC)OCC`, for which the EC50 was 69.2 µM and the IC50 is 110 µM.

Consider `Cc1ccnc2c1C(=O)C(=O)C=C2N1CCCCC1`, for which the result was inactive.

For `O=C=Nc1cccc(S(=O)(=O)c2cccc(N=C=O)c2)c1`, the EC50 is greater than 200 µM and the IC50 is greater than 200 µM.

With `Cc1nc(Nc2ccccc2[N+](=O)[O-])sc1C(=O)CC(=O)C(=O)Nc1c(C(C)C)cccc1C(C)C`, the EC50 is greater than 200 µM and the IC50 was greater than 200 µM.

As to `CCOC(=O)Oc1ccc2[nH]c3c(C)cc(N)c(C)c3c2c1`, the EC50 is greater than 93.3 µM and the IC50 worked out at 39.8 µM.

Regarding `Clc1ccccc1CSc1cnnc2ccccc12`, the EC50 was greater than 93.3 µM and the IC50 was determined as 67.6 µM.

The molecule `Cc1cc(C)c(C(=O)c2c(C)cccc2C(=O)O)c(C)c1` yielded an EC50 greater than 200 µM and an IC50 greater than 200 µM.

With `c1ccc(C2(c3cc4ccccc4[nH]3)OCCO2)nc1`, the EC50 is greater than 200 µM and the IC50 is greater than 200 µM.

On to `O=C(C(=O)c1cc(-c2ccccc2)nc2ccc3ccccc3c12)c1ccccc1`, for which the EC50 was greater than 200 µM and the IC50 was 174 µM.

In the case of `CN(C)CCNC(=O)c1ccc(NC(=O)c2nc([N+](=O)[O-])cn2C)cc1`, the EC50 is greater than 200 µM and the IC50 was 182 µM.

Regarding `CC(=O)OCC1OC(n2c(C)c(N=Nc3ccc(Cl)cc3)c(C)c(C#N)c2=S)C(OC(C)=O)C(OC(C)=O)C1OC(C)=O` (stereo unspecified), the EC50 was greater than 200 µM and the IC50 is greater than 200 µM.

On to `S=C(S)N1CCOCC1`, for which the EC50 is greater than 200 µM and the IC50 was determined as 0.724 µM.

With `CS(=O)(=O)Nc1c(-c2ccccc2)oc2ccccc2c1=O`, the EC50 is greater than 200 µM and the IC50 was greater than 200 µM.

Turning to `CC(Cc1ccccc1)NC1=NCCO1` (stereo unspecified), the EC50 is greater than 200 µM and the IC50 was found to be 145 µM.

Turning to `O=C1C2CC=CCC2C(=O)N1n1c(Cc2ccc(Cl)cc2)n[nH]c1=O` (stereo unspecified), the EC50 is greater than 200 µM and the IC50 is greater than 200 µM.

As for `COc1cc2c3c(c1)SC(c1ccccc1)C(=O)N3CCN2` (stereo unspecified), the EC50 is greater than 200 µM and the IC50 was determined as 14.1 µM.

Take `Cc1nc(-n2[nH]c(C)c(CCO)c2=O)[nH]c(=O)c1CCO`: the result was inactive.

Regarding `O=C1[C@@H]2CC(O)[C@@H]3C(=O)[C@@H]4CC(O)[C@H]1[C@@H]4[C@H]23` (stereo partly specified), the EC50 was greater than 1120 µM and the IC50 was greater than 1120 µM.

Take `COc1ccccc1NC(=O)C1=C(C)NC(C)=C(C(=O)Nc2ccccc2OC)C1c1ccc(C(C)C)cc1`: the result was inactive.

As to `Cc1nc2c(=S)[nH]ncc2[nH]1`, the EC50 is greater than 200 µM and the IC50 was greater than 200 µM.

As for `COc1ccc2nc3ccccc3c(NCCCN(CCCl)CCCl)c2c1`, the result was inactive.

`N#C/C(=C/N1C(=O)/C(=C/c2ccc([N+](=O)[O-])cc2)SC1=S)C(N)=O`: the EC50 is greater than 200 µM and the IC50 amounted to 16.2 µM.

As to `CCc1n[nH]c(=O)n1N1C(=O)CCC1=O`, the EC50 was greater than 200 µM and the IC50 is greater than 200 µM.

In the case of `O=S(Cc1ccccc1)c1nc2ccccc2nc1-c1cccs1` (stereo unspecified), the EC50 is greater than 74.1 µM and the IC50 is 13.5 µM.

For `COS(=O)(=O)OC1(SC)C=C(c2ccccc2)SS1` (stereo unspecified), the EC50 is greater than 200 µM and the IC50 amounted to 107 µM.

Consider `O=c1oc2ccccc2c(O)c1C(c1ccc2c(c1)OCO2)N1CCCC1` (stereo unspecified), for which the EC50 is greater than 200 µM and the IC50 was found to be 93.3 µM.

For `COc1ccc(OC)c2c1C(=O)C1CC1(Br)C2=O` (stereo unspecified), the outcome was inactive.

As for `CC(=O)OCC1OC(Sc2nc(-c3ccc(C)cc3)c(C#N)c(=O)n2C2OC(COC(C)=O)C(OC(C)=O)C(OC(C)=O)C2OC(C)=O)C(OC(C)=O)C(OC(C)=O)C1OC(C)=O` (stereo unspecified), the EC50 is > 100 µM and 69.2 µM; the IC50 was greater than 100 µM.

For the molecule `Nc1nc[n+](Cc2ccccc2CCO)c2nc[nH]c12`, the EC50 was greater than 37.2 µM and the IC50 was greater than 37.2 µM.

For the molecule `O=C(O)C(CO)NC(=O)n1c2ccccc2c2ccccc21` (stereo unspecified), the EC50 was greater than 832 µM and the IC50 is 537 µM.

`CCOC1OC(CO)C(O)CC1n1ccc(=O)[nH]c1=O` (stereo unspecified): the EC50 was greater than 200 µM and the IC50 was 97.7 µM.

For `COc1ccc(C2SCC(=O)N2c2ccc(-c3ccc(-n4c(-c5ccccc5)nc5ccccc5c4=O)cc3)cc2)cc1` (stereo unspecified), the EC50 is greater than 200 µM and the IC50 is 33.9 µM.

With `O=C1c2ccccc2C(=O)C1(c1ccccn1)[N+](=O)[O-]`, the EC50 is greater than 200 µM and the concentration for half-maximal inhibition (IC50) was found to be 72.4 µM.

Turning to `Clc1ccc(C(Cc2ccccc2)c2c(Cl)nc(N3CCNCC3)nc2Cl)cc1` (stereo unspecified), the EC50 was greater than 200 µM and the IC50 worked out at 9.12 µM.

As to `CC(CCc1nc2ccccc2[nH]1)C1CCC2C3CC[C@@H]4C[C@H](O)CC[C@]4(C)C3C[C@H](O)[C@]12C` (stereo partly specified), the EC50 was greater than 50.1 µM and the IC50 is 4.07 µM.

Take `Clc1ccc(Nc2nn3c(CCCCCCCCc4nnc5sc(Nc6ccc(Cl)cc6)nn45)nnc3s2)cc1`: the EC50 was greater than 200 µM and the IC50 came to 112 µM.

On to `CC(C)(O)[C@H]1CC[C@@]23CCCC(=O)C2(C1)C3` (stereo partly specified), for which the outcome was inactive.

In the case of `O=C(O)Cc1cc(=O)[nH]n(-c2ccccc2)c1=O`, the EC50 was greater than 200 µM and the IC50 was greater than 200 µM.

As to `O=C(NCCO)c1c(CNC2CCCCC2)n([O-])c2ccccc2[n+]1=O`, the EC50 is greater than 501 µM and the IC50 was greater than 501 µM.

As for `CC(=O)Nc1ccc(-c2nnc(SCC(=O)Nc3ccccc3)o2)cc1`, the EC50 was greater than 37.2 µM and the IC50 stood at 20.9 µM.

Turning to `COC(=O)CSc1nc2[nH]c(SC)c(C(N)=O)c2c(=O)n1-c1ccccc1`, the EC50 was greater than 200 µM and the IC50 was greater than 200 µM.

On to `c1ccc(P2CCc3[nH]c4ccccc4c3C2)cc1` (stereo unspecified), for which the EC50 is greater than 38 µM and the IC50 is greater than 38 µM.

For the molecule `COC(=O)Cn1cnc2c(Cl)nc(Nc3ccccc3)nc21`, the EC50 is greater than 200 µM and the IC50 is 63.1 µM.

Take `COc1cc2c(cc1O)CN1CCC23C=C[C@@H](O)CC13` (stereo partly specified): the EC50 was greater than 912 µM and the IC50 was 38.9 µM.

In the case of `Cn1cc(NC(=O)c2nc(NC(=O)c3nc(NC(=O)c4ccc(C(=O)Nc5cn(C)c(C(=O)Nc6cn(C)c(C(=O)Nc7cn(C)c(C(=O)NCCC(=N)N)n7)n6)n5)cc4)cn3C)cn2C)nc1C(=O)NCCC(=N)N`, the EC50 was greater than 12.9 µM and the IC50 was determined as 2.34 µM.

As for `CCC1NC(N=Nc2ccc([N+](=O)[O-])cc2)(P(=O)(OC(C)C)OC(C)C)OC1=O` (stereo unspecified), the EC50 was greater than 219 µM and the IC50 is greater than 219 µM.

As for `COc1cc(Nc2nc3ccccc3nc2-c2cccs2)cc(OC)c1OC`, the EC50 is greater than 25.1 µM and the IC50 was found to be 21.9 µM.

As to `CN1C(=O)C2C(=O)N(Cc3ccccc3)CC(=O)N2c2cccnc21` (stereo unspecified), the EC50 was greater than 200 µM and the IC50 was greater than 200 µM.

Take `C=C1c2nc3ccccc3n2C=C(c2ccc(C)cc2)N1c1ccc(OC)cc1`: the EC50 is greater than 200 µM and the IC50 was 11.5 µM.

With `Oc1ccc(Cl)cc1C1=NC(/N=C\c2ccccc2)=NC(c2ccccc2)C1` (stereo unspecified), the EC50 was greater than 200 µM and the IC50 is 8.91 µM.

Turning to `C[C@]12CC[C@H](OC(=O)/C=C\c3cccc(N(CCCl)CCCl)c3)CC1CC[C@@H]1C2CC[C@]2(C)NC(=O)CCC12` (stereo partly specified), the outcome was inactive.

With `Cc1cc2nc3c(=O)n(C)c(=O)nc-3n(-c3ccc(Cl)cc3)c2cc1C`, the result was inactive.

For `COC(=O)C1CC(C(=O)OC)c2nc3cc(C)c(C)cc3nc21` (stereo unspecified), the EC50 is greater than 83.2 µM and the IC50 is greater than 83.2 µM.

Turning to `O=CC[C@H]1C=Cc2ccccc2[C@@]12C=CC(=O)CC2`, the EC50 was greater than 28.8 µM and the IC50 was found to be 21.9 µM.

On to `COC(=O)C(C(=O)C(=O)Nc1cccc(O)c1)c1nc2ccc(Cl)cc2[nH]c1=O` (stereo unspecified), for which the EC50 was greater than 87.1 µM and the IC50 came out at 85.1 µM.

`CNc1c2cccc(C)c2nc2c(C(=O)NCCN(C)C)cccc12`: the EC50 is greater than 0.2 µM and the IC50 worked out at 0.0191 µM.

On to `Nc1nc(Cl)cc(NCC2(CO)CCC(OCc3ccccc3)C2)n1` (stereo unspecified), for which the EC50 is 14.5 µM and the IC50 was 17.8 µM.

For `CSc1nc(SC)c2[nH]cnc2n1`, the EC50 is greater than 200 µM and the IC50 was found to be 145 µM.

For the molecule `COC(=O)C1C(=O)C(C(=O)OC)C2(C)C(C(=O)OC)C(=O)C(C(=O)OC)C12C` (stereo unspecified), the EC50 is greater than 89.1 µM and the IC50 came to 81.3 µM.

For `C[C@]12CNC(=O)C=C1CC[C@@H]1C2CC[C@]2(C)NC(=O)CCC12` (stereo partly specified), the outcome was inactive.

With `Nc1ncnc2nc(-c3ccc(C[P+](c4ccccc4)(c4ccccc4)c4ccccc4)cc3)[nH]c12`, the EC50 is greater than 200 µM and the IC50 is greater than 200 µM.

In the case of `CN(C)Cc1cc(N=Nc2ccccc2Cl)cc(CN(C)C)c1O`, the EC50 is greater than 200 µM and the half-maximal inhibitory concentration (IC50) is 93.3 µM.

On to `C/C(N=NC(=S)N1CCCCCC1)=C1\C=CC=CN1O`, for which the EC50 was greater than 123 µM and the IC50 was determined as 2.14 µM.

With `COC(=O)C1C2c3ccccc3-c3ccccc3C2(OC(C)=O)[C@@]1(Cl)C(=O)OC` (stereo partly specified), the EC50 was greater than 43.7 µM and the half-inhibitory concentration (IC50) came out at 6.61 µM.

For the molecule `CP1(=S)CC(Cl)=C2CCCCC21` (stereo unspecified), the outcome was inactive.

In the case of `Cc1ccc(SSc2nnnn2C)cc1`, the EC50 is greater than 200 µM and the IC50 was found to be 11 µM.

For the molecule `NCCCCN(CCCN)Cc1ccccc1`, the outcome was inactive.

With `CCC(C)C(NC(=O)C(N)CCCCN)C(=O)NC(CCC(=O)O)C(=O)NC(CO)C(=O)NC(C(=O)O)C(C)O` (stereo unspecified) (H-KIEST-OH; configuration not given here), the result was inactive.
